These results are taken from patent publication US20210395235A1, “COMPOUND AS TGF-beta R1 INHIBITOR AND APPLICATION THEREOF” (NANJING SANHOME PHARMACEUTICAL CO., LTD., priority 2018, published 2021).

In general, IC50 refers to the concentration that inhibits the measured activity by half. A high value points to weaker potency in that assay.

The test system of assay [1] is TGFβ-ALK5-SMAD2/3 signaling pathway in Luc-Smad2/3-NIH3T3 cells. In words: In vitro cell luciferase assay in Luc-Smad2/3-NIH3T3 cells stimulated with TGFβ1. The following applies: Mus musculus; TGFβ1 4 ng/mL, 2% FBS medium, luciferase chemiluminescence. Type of assay: cell-based. The procedure: Test compounds: For the compounds of the present disclosure prepared in the above examples, each compound was prepared into 4 mM using DMSO. Then, a 4-fold serial dilution was made to obtain 20000.00 nM, 5000.00 nM, 1250.00 nM, 312.5 nM, 78.125 nM, 19.53 nM, 4.88 nM and 1.22 nM successively.
Luc-Smad2/3-NIH3T3 mouse fibroblasts (engineered to overexpress SMAD2,3-responsive promoter) were provided by a laboratory of China Pharmaceutical University.
Reagents: DMEM, purchased from Invitrogen, US; FBS, purchased from Invitrogen, US; DMSO, purchased from Sigma, US; Glo Lysis Buffer, purchased from Progema, US; Bright-Glo Luciferase assay system, purchased from Promega, US; and TGFβ, purchased from PeproTech, US.
Instruments: MD SpectraMaX M3 multifunctional enzyme reader, purchased from Molecular Devices, US.
Cell recovery: The cells were dissolved by placing in a […] water bath, then transferred to a 15 mL of pre-warmed culture medium, and centrifuged at 1000 rpm for 5 minutes. After the culture medium was discarded, the cells were resuspend in 15 mL of fresh culture medium, transferred to a 10 cm dish, and placed in an incubator at 37° C. with 5% CO2 for culture. After 24 hours, the culture medium for the cells was changed with a fresh culture medium.
Cell passage: The recovered cells were transferred to a 50 mL sterile centrifuge tube and centrifuged at 1000 rpm for 5 minutes. The culture medium was discarded. The evenly dispersed cells was counted, and adjusted to an appropriate cell concentration of 15 mL of fresh culture medium, added to a 10 cm dish, and placed in an incubator at 37° C. with 5% CO2 for culture.
Luc-Smad2/3-NIH3T3 cells were cultured normally in a 10 cm culture dish until the confluence reached 80%-90%. After digestion, they were collected in a 15 mL centrifuge tube, centrifuged at 1000×g for 5 minutes to remove the supernatant, and resuspended with 1 mL of medium, then diluted 10 times and counted. The cells was diluted according to the results from the count, and transferred into a 96-well plate at 4×10^3/cells per well (100 μl of resuspended cells was added in each well).
1-2 mg of the drug was weighed (weighed in advance), and prepared into a 4 mM stock solution using DMSO. After 24 hours, the culture medium was removed. The drug was diluted with 2% FBS culture medium. 100 μl of the 1× drug solution was added to make the final concentration of the drug to be 20000.00 nM, 5000.00 nM, 1250.00 nM, 312.5 nM, 78.125 nM, 19.53 nM, 4.88 nM, and 1.22 nM. TGFβ1 was present in each well at a final concentration of 4 ng/mL, and diluted with 2% FBS culture medium together with the compounds.
The Glo Lysis Buffer and the Bright-glo luciferase assay system as well as the cells were equilibrated to room temperature. After the cell supernatant was removed, the cells were dissolved evenly by adding 100 μl of the Glo Lysis Buffer to each well with shaking slowly, and lysed at room temperature for 5 minutes. After that, to each well, 100 μl of the Bright-glo luciferase assay system was added to incubate the cells for 5 minute at room temperature with shaking for 2 minutes. Then, 180 μl of the supernatant was transferred to a white bottom 96-well plate to detect chemiluminescence signal. The detection condition was 1 s.
2.3 Data processing: Graphpad Prism 5 software was used to perform nonlinear curve fitting and data analysis to obtain IC50 by fitting.

Another assay deals with T1, ALK5 (Homo sapiens, UniProt P36897).
T1 construct: purchased Carna 09-141
T1 sequence (P36897 162-503 limits assumed): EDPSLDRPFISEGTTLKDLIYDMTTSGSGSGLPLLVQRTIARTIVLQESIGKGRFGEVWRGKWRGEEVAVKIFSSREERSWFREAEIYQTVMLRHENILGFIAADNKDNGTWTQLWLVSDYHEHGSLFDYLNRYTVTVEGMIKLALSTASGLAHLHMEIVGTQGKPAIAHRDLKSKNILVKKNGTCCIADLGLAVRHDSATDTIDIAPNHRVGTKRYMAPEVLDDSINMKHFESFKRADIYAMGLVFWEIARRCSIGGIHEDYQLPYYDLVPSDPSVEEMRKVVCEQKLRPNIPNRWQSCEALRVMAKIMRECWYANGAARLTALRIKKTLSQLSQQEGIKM
Nature of the assay: In vitro activity against ALK5 kinase (ADP-Glo Kinase Assay). The class given is biochemical. Conditions: 28° C. 120 minutes. The method, then:
For the compounds of the present disclosure prepared in the above examples, each compound was prepared into 10 mM with DMSO, and then diluted to 3.333 μM, 1.111 μM, 370 nM, 123 nM, 41 nM, 14 nM, 4.6 nM, 1.5 nM and 0.5 nM successively.
Reagents: ALK5, Cat. No. 09-141, purchased from Carna; p38α, Cat. No. 04-152, purchased from the Carna; TGFβR1 peptides, Cat. No. T36-58, purchased from SignalChem; dimethyl sulfoxide (DMSO), purchased from Sigma, US; EDTA, purchased from Sigma, US; and ADP-Glo Kinase Assay, Cat. No. v9102/3, 1×Kinase buffer (40 mM Tris, pH7.5, 0.10% BSA, 20 mM MgCl2, 1 mM DTT), purchased from Promega, and prepared immediately before use.
2.2.1.1 Preparation of 50-fold compounds: The compounds were prepared into 500 μM, 50-fold concentration as the final concentration 10 μM for detecting the compounds, which was performed as following: into a second well of a 96-well plate, 95 μl of 100% DMSO was added, and then 5 μl of the 10 mM compound solution was added, to prepare a […] compound solution; into other wells, 60 μl of 100% DMSO was added; from the second well, 30 μl of the compound was drawn out and added into a third well; such 3-fold serial dilution was continued successively until 10 dilutions of concentration were made.
The kinase was added to a 1× kinase buffer, to form a 2× enzyme solution. 2.5 μl of the 2× enzyme solution was added to a 384-well reaction plate which already contained 100 nl of 100% DMSO-dissolved compound, to incubate at room temperature for 10 minutes.
FAM labeled peptides and ATP were added to the 1× kinase buffer, to form a 2× substrate solution. 2.5 μl of the 2× substrate solution was added to the 384-well reaction plate.
The 384-well plate was incubated at 28° C. for 120 minutes.
2.5.1 An ADP-Glo reagent was equilibrated to room temperature.
2.5.2 5 μl of the reaction solution was transferred into a reaction well at another new 384-well plate.
2.5.3 5 μl of the ADP-Glo reagent was transferred into the reaction well at the 384-well plate to stop the reaction.
2.5.4 An incubation was performed at 28° C. for 120 minutes.
2.5.5 10 μl of a kinase detection reagent was transferred into each reaction well, shaken for 1 minute, and was allowed to stand for 30 minutes at room temperature.
The luminescence value of the sample was read from Envision.
2.7.1 Luminescence reading data were copied from the Envision program.
2.7.2 The values of the luminescence reading were converted into the percent inhibition by the following formula.
Percent inhibition=(max−sample RLU)/(max−min)×100, where “min” stands for the fluorescence reading of the control sample with no enzyme added to the reaction; and “max” stands for the fluorescence reading of the sample with DMSO added as a control.
2.7.3 The date were imported into MS Excel and subjected to curve fitting using XLFit excel add-in version 5.4.0.8 and a fitting formula: Y=Bottom+(Top−Bottom)/(1+(IC50/X)^HillSlope).
(ADP-Glo turns the ADP formed in a reaction into a luminescent signal.)

For `CC(C)(O)c1cc(Nc2ccc3c(Oc4cn(C5CC5)nc4C4CCOCC4)ccnc3c2)ccn1` [Example 1, 2-(4-((4-((1-cyclopropyl-3-(tetrahydro-2H-pyran-4-yl)-1H-pyrazol-4-yl)oxy)quinolin-7-yl)amino)pyridin-2-yl)propan-2-ol], the IC50 in assay [1] came out at 200 nM; against ALK5, 120 nM.
For `c1cc(Oc2cn(C3CC3)nc2C2CCOCC2)c2ccc(N3CCOCC3)cc2n1` [Example 2, 4-(4-((1-cyclopropyl-3-(tetrahydro-2H-pyran-4-yl)-1H-pyrazol-4-yl)oxy)quinolin-7-yl)morpholine], in that order: 150 nM and 98 nM.
For the compound `FC(F)(F)c1nnc2n1CCN(c1ccc3c(Oc4cn(C5CC5)nc4C4CCOCC4)ccnc3c1)C2` [Example 3, 4-((1-cyclopropyl-3-(tetrahydro-2H-pyran-4-yl)-1H-pyrazol-4-yl)oxy)-7-(3-(trifluoromethyl)-5,6-dihydro-[1,2,4]triazolo[4,3-a]pyrazin-7(8H)-yl)quinoline], the IC50 in assay [1] is 102 nM; on ALK5 it was 80 nM.
For `O=S1(=O)CCN(c2ccc3c(Oc4cn(C5CC5)nc4C4CCOCC4)ccnc3c2)CC1` [Example 4, 4-(4-((1-cyclopropyl-3-(tetrahydro-2H-pyran-4-yl)-1H-pyrazol-4-yl)oxy)quinolin-7-yl)thiomorpholine-1,1-dioxide], in that order: 140 nM and 250 nM.
In the case of `c1cc(Oc2cn(C3CC3)nc2C2CCOCC2)c2ccc(-c3cn[nH]c3)cc2n1` [Example 8, 4-((1-cyclopropyl-3-(tetrahydro-2H-pyran-4-yl)-1H-pyrazol-4-yl)oxy)-7-(1H-pyrazol-4-yl)quinoline], the IC50 in assay [1] was determined as 92 nM.
On the same count and under the same terms, with `CS(=O)(=O)n1cc(-c2ccc3c(Oc4cn(C5CC5)nc4C4CCOCC4)ccnc3c2)cn1` [Example 9, 4-((1-cyclopropyl-3-(tetrahydro-2H-pyran-4-yl)-1H-pyrazol-4-yl)oxy)-7-(1-(methylsulfonyl)-1H-pyrazol-4-yl)quinoline] the figure was 101 nM; with `CS(=O)(=O)CCn1cc(-c2ccc3c(Oc4cn(C5CC5)nc4C4CCOCC4)ccnc3c2)cn1` [Example 10, 4-((1-cyclopropyl-3-(tetrahydro-2H-pyran-4-yl)-1H-pyrazol-4-yl)oxy)-7-(1-(2-(methylsulfonyl)ethyl)-1H-pyrazol-4-yl)quinoline], 90 nM; with `CC(C)(O)Cn1cc(-c2ccc3c(Oc4cn(C5CC5)nc4C4CCOCC4)ccnc3c2)cn1` [Example 11, 1-(4-(4-((1-cyclopropyl-3-(tetrahydro-2H-pyran-4-yl)-1H-pyrazol-4-yl)oxy)quinolin-7-yl)-1H-pyrazol-1-yl)-2-methylpropan-2-ol], 96 nM.
In assay [1], `CC(C)n1cc(-c2ccc3c(Oc4cn(C5CC5)nc4C4CCOCC4)ccnc3c2)cn1` [Example 12, 4-((1-cyclopropyl-3-(tetrahydro-2H-pyran-4-yl)-1H-pyrazol-4-yl)oxy)-7-(1-isopropyl-1H-pyrazol-4-yl)quinoline] returned an IC50 of 77 nM.
`FC(F)(F)Cn1cc(-c2ccc3c(Oc4cn(C5CC5)nc4C4CCOCC4)ccnc3c2)cn1` [Example 13, 4-((1-cyclopropyl-3-(tetrahydro-2H-pyran-4-yl)-1H-pyrazol-4-yl)oxy)-7-(1-(2,2,2-trifluoroethyl)-1H-pyrazol-4-yl)quinoline]: in assay [1], it took 81 nM to reach half-maximal inhibition (IC50).
With `Cn1cc(-c2ccc3c(Oc4cn(C5CC5)nc4-c4ccccc4)ccnc3c2)cn1` [Example 14, 4-((1-cyclopropyl-3-phenyl-1H-pyrazol-4-yl)oxy)-7-(1-methyl-1H-pyrazol-4-yl)quinoline], the IC50 in assay [1] worked out at 46 nM.
`NS(=O)(=O)c1ccc(-c2ccc3c(Oc4cn(C5CC5)nc4C4CCOCC4)ccnc3c2)cc1` [Example 20, 4-(4-((1-cyclopropyl-3-(tetrahydro-2H-pyran-4-yl)-1H-pyrazol-4-yl)oxy)quinolin-7-yl)benzenesulfonamide]: the IC50 in assay [1] is 75 nM.
Regarding `CS(=O)(=O)c1ccc(-c2ccc3c(Oc4cn(C5CC5)nc4C4CCOCC4)ccnc3c2)cn1` [Example 21, 4-((1-cyclopropyl-3-(tetrahydro-2H-pyran-4-yl)-1H-pyrazol-4-yl)oxy)-7-(6-(methylsulfonyl)pyridin-3-yl)quinoline], it took 49 nM to reach half-maximal inhibition in assay [1] (IC50).
On to `CS(=O)(=O)N1CC=C(c2ccc3c(Oc4cn(C5CC5)nc4C4CCOCC4)ccnc3c2)CC1` [Example 22, 4-((1-cyclopropyl-3-(tetrahydro-2H-pyran-4-yl)-1H-pyrazol-4-yl)oxy)-7-(1-(methylsulfonyl)-1,2,3,6-tetrahydropyridin-4-yl)quinoline], for which inhibition in assay [1] was half-maximal at 56 nM (IC50).
On to `FC(F)(F)c1nc2n(n1)CCN(c1ccc3c(Oc4cn(C5CC5)nc4C4CCOCC4)ccnc3c1)C2` [Example 23, 4-((1-cyclopropyl-3-(tetrahydro-2H-pyran-4-yl)-1H-pyrazol-4-yl)oxy)-7-(2-(trifluoromethyl)-5,6-dihydro-[1,2,4]triazolo[1,5-a]pyrazin-7(8H)-yl)quinoline], for which, in assay [1], the IC50 stood at 200 nM.
